Assay results published in BindingDB's records for doi:10.1021/jm00137a012 (1981).

Molecular target: T1, Dihydrofolate reductase (Bos taurus, UniProt P00376)
T1 sequence (P00376 whole entry): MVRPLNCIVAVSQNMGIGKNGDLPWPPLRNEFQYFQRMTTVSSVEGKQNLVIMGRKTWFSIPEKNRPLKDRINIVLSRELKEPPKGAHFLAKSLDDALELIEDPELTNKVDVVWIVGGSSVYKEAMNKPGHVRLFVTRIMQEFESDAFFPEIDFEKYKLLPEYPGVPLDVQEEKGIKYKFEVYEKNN
Test: Inhibition of dihydrofolate reductase from bovine liver

Ki [µM] | Structure (SMILES)
26.9 | Nc1ccc(Cc2cnc(N)nc2N)cc1
13.2 | Nc1ncc(Cc2cccc(O)c2)c(N)n1 [3-(2,4-Diamino-pyrimidin-5-ylmethyl)-phenol]
3.8 | Nc1ncc(Cc2ccc(OC(F)(F)F)cc2)c(N)n1
7.08 | COc1ccc(Cc2cnc(N)nc2N)cc1OC [Diaveridine]
3.24 | COCc1cccc(Cc2cnc(N)nc2N)c1
2.95 | Nc1ncc(Cc2cccc(C(F)(F)F)c2)c(N)n1
0.708 | Nc1ncc(Cc2cccc(I)c2)c(N)n1
13.2 | COCCOc1c(OC)cc(Cc2cnc(N)nc2N)cc1OC [5-[3,5-Dimethoxy-4-(2-methoxy-ethoxy)-benzyl]-pyrimidine-2,4-diamine]
1.82 | CCCCOc1ccc(Cc2cnc(N)nc2N)cc1
2.63 | CS(=O)(=O)Oc1cccc(Cc2cnc(N)nc2N)c1
6.92 | CC(=O)Nc1ccc(Cc2cnc(N)nc2N)cc1[N+](=O)[O-]
1.38 | CCCCOCc1cccc(Cc2cnc(N)nc2N)c1
15.8 | Cc1ccc(Cc2cnc(N)nc2N)cc1
6.31 | Nc1ncc(Cc2cccc(CO)c2)c(N)n1
50.1 | Nc1ncc(Cc2cc(CO)cc(CO)c2)c(N)n1
